From patent EP3822285A1, “VARIANT NISIN PEPTIDES” (University College Cork-National University of Ireland, Cork, priority 2019, dated 2021)
Converted amounts (≈) assume the structure as drawn. “And” between values parts separate entries of the source, which are not always exact repeats. Equal entries are not always repeated. Marks after values point to notes of the source that are not given here.

Experiments:
Assay type in all cases: cell-based
T. scotoductus SE-1 = test: Minimum inhibitory concentration assay (Thermus); conditions: pure peptide, mean of triplicate assays
Description: (§1) Minimum inhibitory concentration (MIC) determinations for gram negative Thermus strains were carried out in triplicate in round bottom microtitre plates (Corning). 96 well microtitre plates were pre-treated with bovine serum albumin (BSA) prior to addition of the peptides. Briefly, to each well of the microtire plates 200 µl of d.H2O (filtered with 0.2 µm filter) containing 1% (w/w) BSA was added and incubated at 37°C for 30 mins. The wells were washed with 200 µl of IX phosphate buffered saline (PBS) for 2 times after removing 1% BSA d.H2O. 100 µl of growth media, i.e., Castenholz, was added to each well. […] Target strains were grown overnight as per conditions mention above, 0.5 ml of overnight was subcultured in to 10 mls of fresh Castenholz medium and allowed to grow to an OD600 of ∼0.5. 20µl of this subculture was added to 980µl of media, 150µl of this dilution added to 14.85 ml of growth media. 100µl of this dilution added to each well resulting in a final inoculum of ∼10^5 cfu/ml in 200µl. The plates were incubated at 55° C for 3 days and the MIC was determined as the lowest concentration at which no growth was visible.
(§2) The bioactivity of cell-free supernatant can be influenced by altered diffusion rates, solubility, production or specific activity. To determine to what extent, if any, the bioactivity noted above is due to increased specific activity, nisin A (control) and the derivatives were purified and their molecular weights confirmed by MALDI TOF mass spectrometry (Table: 6) (Figure: 4). These peptides were used to perform minimum inhibitory concentration assays against six Thermus strains, i.e., T. thermophilus HB27, T. scotoductus SE-1, T. rehai, T. oshimai, T. aquaticus and T. brockianus.

T. thermophilus HB27 = test: Minimum inhibitory concentration assay (Thermus); conditions: for MIC: pure peptide, mean of triplicate assays
Description: as §1, §2

T. rehai = test: Minimum inhibitory concentration assay (Thermus); conditions: for MIC: pure peptide, mean of triplicate assays
Description: as §1, §2

T. brockianus = test: Minimum inhibitory concentration assay (Thermus); conditions: pure peptide, mean of triplicate assays
Description: as §1, §2

T. oshimai = test: Minimum inhibitory concentration assay (Thermus); conditions: for MIC: pure peptide, mean of triplicate assays
Description: as §1, §2

T. aquaticus = test: Minimum inhibitory concentration assay (Thermus); conditions: for MIC: pure peptide, mean of triplicate assays
Description: as §1, §2

Thermus scotoductus SE-1 = test: Agar diffusion assay with cell free supernatant of producing strains; conditions: zone diameter relative to Nisin A wild type (100)
Description: (§3) Agar diffusion assays were carried out in triplicate using nisin producing and indicator (T. thermophilus HB27 and T. scotoductus Se-1) strains. Both the producer and indicator strains were cultured as per conditions described above. One ml of overnight culture of indicators were added to 50ml of molten Castenholz agar, briefly swirled and poured. Wells were made using sterile glass pipette. To generate cell free supernatant from nisin producing strains, 10 mls of overnight cultures of the strains were centrifuged at 950g for 20 mins. The cell free supernatant was transferred to a sterile tube. 50 µl of cell free supernatant was added to wells described above. Plates were incubated at 55°C for 3 days and the zone of clearance measured.
(§4) The cell free supernatant of nisin A and nisin variant producing L. lactis was used to determine the bioactivity of these lantibiotics against T. thermophilus HB27 and T. scotoductus SE-1 using agar diffusion assays, with the zone of clearance representing the bioactivity of the producing strain (i.e., representing a combination of the amount of the peptide produced and the specific activity of that peptide). […] Among the variants tested were those with altered N-terminal domains. The N-terminal domain of nisin is important for binding with the pyrophosphate moiety of lipid II to mediate pore formation in the cell membrane. Lysine (K) at position 12, which serves as a small flexible region between ring B and C, and is one of among the 5 positively charged residues (K12, K22, K34, H27, […]) of nisin A that contributes to its cationic nature and its attraction to the cell envelope.

[1] = tested on: Thermus thermophilus HB27; test: as above; conditions: zone diameter relative to Nisin A wild type (100)
Description: as §3, §4

C=C(NC(=O)[C@@H](NC(=O)[C@H](Cc1c[nH]cn1)NC(=O)[C@@H](NC(=O)[C@H](CO)NC(=O)[C@@H]1CS[C@@H](C)[C@H]2NC(=O)[C@H](C)NC(=O)[C@H](NC(=O)[C@H](CCCCN)NC(=O)[C@H](C)NC(=O)[C@H](C)NC(=O)[C@@H]3CS[C@@H](C)[C@@H](NC(=O)[C@H](CCCCN)NC(=O)[C@@H]4CS[C@@H](C)[C@@H](NC(=O)[C@@H]5CSC[C@@H](NC(=O)/C(=C/C)NC(=O)[C@@H](N)[C@@H](C)CC)C(=O)N[C@@H]([C@@H](C)CC)C(=O)NC(=C)C(=O)N[C@@H](CC(C)C)C(=O)N5)C(=O)N5CCC[C@H]5C(=O)NCC(=O)N4)C(=O)NCC(=O)N[C@@H](C)C(=O)N[C@@H](CC(C)C)C(=O)N[C@@H](CCSC)C(=O)NCC(=O)N3)[C@H](C)SC[C@H](NC2=O)C(=O)N[C@@H](Cc2c[nH]cn2)C(=O)N1)[C@@H](C)CC)C(C)C)C(=O)N[C@@H](CCCCN)C(=O)O [AAK]
MIC (T. scotoductus SE-1): 0.0625 µM (≈ 0.203 µg/mL) | MIC (T. thermophilus HB27): 0.0312 µM (≈ 0.101 µg/mL) | MIC (T. rehai): 0.0156 µM (≈ 0.0507 µg/mL) | MIC (T. brockianus): 0.0156 µM (≈ 0.0507 µg/mL) | MIC (T. oshimai): 0.0156 µM (≈ 0.0507 µg/mL) | MIC (T. aquaticus): 0.0625 µM (≈ 0.203 µg/mL) | % of wild type (Thermus scotoductus SE-1): 132* (0.004) %

C=C(NC(=O)[C@@H](NC(=O)[C@H](Cc1c[nH]cn1)NC(=O)[C@@H](NC(=O)[C@H](CO)NC(=O)[C@@H]1CS[C@@H](C)[C@H]2NC(=O)[C@H](C)NC(=O)[C@H](NC(=O)[C@H](CCCCN)NC(=O)[C@H](CCSC)NC(=O)[C@H](CC(N)=O)NC(=O)[C@@H]3CS[C@@H](C)[C@@H](NC(=O)[C@H](CCCCN)NC(=O)[C@@H]4CS[C@@H](C)[C@@H](NC(=O)[C@@H]5CSC[C@@H](NC(=O)/C(=C/C)NC(=O)[C@@H](N)[C@@H](C)CC)C(=O)N[C@@H]([C@@H](C)CC)C(=O)NC(=C)C(=O)N[C@@H](CC(C)C)C(=O)N5)C(=O)N5CCC[C@H]5C(=O)NCC(=O)N4)C(=O)NCC(=O)N[C@@H](C)C(=O)N[C@@H](CC(C)C)C(=O)N[C@@H](CCSC)C(=O)NCC(=O)N3)[C@H](C)SC[C@H](NC2=O)C(=O)N[C@@H](CCC(N)=O)C(=O)N1)[C@@H](C)CC)C(C)C)C(=O)N[C@@H](CCCCN)C(=O)O [H27Q]
MIC (T. scotoductus SE-1): 0.0625 µM (≈ 0.209 µg/mL) | fold better activity than nisin A (T. thermophilus HB27): 8 fold | MIC (T. thermophilus HB27): 3.2 µg/L and 0.000975 µM | fold better activity than nisin A (T. rehai): 8 fold | MIC (T. rehai): 3.2 µg/L and 0.000975 µM | MIC (T. brockianus): 0.0156 µM (≈ 0.0522 µg/mL) | fold better activity than nisin A (T. oshimai): 8 fold | MIC (T. oshimai): 3.2 µg/L and 0.000975 µM | fold better activity than nisin A (T. aquaticus): 14 fold | MIC (T. aquaticus): 3.26 µg/L and 0.000975 µM | % of wild type (Thermus scotoductus SE-1): 115% | % difference [1]: 136* (0.031) %

C=C(NC(=O)[C@@H](NC(=O)[C@H](Cc1c[nH]cn1)NC(=O)[C@@H](NC(=O)[C@H](CO)NC(=O)[C@@H]1CS[C@@H](C)[C@H]2NC(=O)[C@H](C)NC(=O)[C@H](NC(=O)[C@H](CCCCN)NC(=O)[C@H](CCSC)NC(=O)[C@H](CC(N)=O)NC(=O)[C@@H]3CS[C@@H](C)[C@@H](NC(=O)[C@H](CC(C)C)NC(=O)[C@@H]4CS[C@@H](C)[C@@H](NC(=O)[C@@H]5CSC[C@@H](NC(=O)/C(=C/C)NC(=O)[C@@H](N)[C@@H](C)CC)C(=O)N[C@@H]([C@@H](C)CC)C(=O)NC(=C)C(=O)N[C@@H](CC(C)C)C(=O)N5)C(=O)N5CCC[C@H]5C(=O)NCC(=O)N4)C(=O)NCC(=O)N[C@@H](C)C(=O)N[C@@H](CC(C)C)C(=O)N[C@@H](CCSC)C(=O)NCC(=O)N3)[C@H](C)SC[C@H](NC2=O)C(=O)N[C@@H](Cc2c[nH]cn2)C(=O)N1)[C@@H](C)CC)C(C)C)C(=O)N[C@@H](CCCCN)C(=O)O [K12L]
MIC (T. scotoductus SE-1): 0.0625 µM (≈ 0.209 µg/mL) | MIC (T. thermophilus HB27): 0.0156 µM (≈ 0.0521 µg/mL) | MIC (T. rehai): 0.0078 µM (≈ 0.026 µg/mL) | MIC (T. brockianus): 0.0312 µM (≈ 0.104 µg/mL) | MIC (T. oshimai): 0.0078 µM (≈ 0.026 µg/mL) | fold better activity than nisin A (T. aquaticus): 2 fold | MIC (T. aquaticus): 0.0078 µM (≈ 0.026 µg/mL) | % difference [1]: 120%

C=C(NC(=O)[C@@H](NC(=O)[C@H](Cc1c[nH]cn1)NC(=O)[C@@H](NC(=O)[C@H](CO)NC(=O)[C@@H]1CS[C@@H](C)[C@H]2NC(=O)[C@H](C)NC(=O)[C@H](NC(=O)[C@H](CCCCN)NC(=O)[C@H](C)NC(=O)[C@H](CC(N)=O)NC(=O)[C@@H]3CS[C@@H](C)[C@@H](NC(=O)[C@H](CCCCN)NC(=O)[C@@H]4CS[C@@H](C)[C@@H](NC(=O)[C@@H]5CSC[C@@H](NC(=O)/C(=C/C)NC(=O)[C@@H](N)[C@@H](C)CC)C(=O)N[C@@H]([C@@H](C)CC)C(=O)NC(=C)C(=O)N[C@@H](CC(C)C)C(=O)N5)C(=O)N5CCC[C@H]5C(=O)NCC(=O)N4)C(=O)NCC(=O)N[C@@H](C)C(=O)N[C@@H](CC(C)C)C(=O)N[C@@H](CCSC)C(=O)NCC(=O)N3)[C@H](C)SC[C@H](NC2=O)C(=O)N[C@@H](Cc2c[nH]cn2)C(=O)N1)[C@@H](C)CC)C(C)C)C(=O)N[C@@H](CCCCN)C(=O)O [M21A]
MIC (T. scotoductus SE-1): 0.0312 µM (≈ 0.103 µg/mL) | MIC (T. thermophilus HB27): 0.0312 µM (≈ 0.103 µg/mL) | MIC (T. rehai): 0.0312 µM (≈ 0.103 µg/mL) | MIC (T. brockianus): 0.0625 µM (≈ 0.206 µg/mL) | MIC (T. oshimai): 0.0078 µM (≈ 0.0257 µg/mL) | MIC (T. aquaticus): 0.0078 µM (≈ 0.0257 µg/mL) | % difference [1]: 158* (0.001) %

C=C(NC(=O)[C@@H](NC(=O)[C@H](Cc1c[nH]cn1)NC(=O)[C@@H](NC(=O)[C@H](CO)NC(=O)[C@@H]1CS[C@@H](C)[C@H]2NC(=O)[C@H](C)NC(=O)[C@H](NC(=O)[C@H](CCC(N)=O)NC(=O)[C@H](C)NC(=O)[C@@H]3CCCN3C(=O)[C@@H]3CS[C@@H](C)[C@@H](NC(=O)[C@H](CCCCN)NC(=O)[C@@H]4CS[C@@H](C)[C@@H](NC(=O)[C@@H]5CSC[C@@H](NC(=O)/C(=C/C)NC(=O)[C@@H](N)[C@@H](C)CC)C(=O)N[C@@H]([C@@H](C)CC)C(=O)NC(=C)C(=O)N[C@@H](CC(C)C)C(=O)N5)C(=O)N5CCC[C@H]5C(=O)NCC(=O)N4)C(=O)NCC(=O)N[C@@H](C)C(=O)N[C@@H](CC(C)C)C(=O)N[C@@H](CCSC)C(=O)NCC(=O)N3)[C@H](C)SC[C@H](NC2=O)C(=O)N[C@@H](Cc2c[nH]cn2)C(=O)N1)[C@@H](C)CC)C(C)C)C(=O)N[C@@H](CCCCN)C(=O)O [PAQ]
MIC (T. scotoductus SE-1): 0.0625 µM (≈ 0.205 µg/mL) | MIC (T. thermophilus HB27): 0.0078 µM (≈ 0.0256 µg/mL) | MIC (T. rehai): 0.0156 µM (≈ 0.0511 µg/mL) | MIC (T. brockianus): 0.0312 µM (≈ 0.102 µg/mL) | MIC (T. oshimai): 0.0039 µM (≈ 0.0128 µg/mL) | MIC (T. aquaticus): 0.0156 µM (≈ 0.0511 µg/mL) | % difference [1]: 138* (0.02) %

C=C(NC(=O)[C@@H](NC(=O)[C@H](Cc1c[nH]cn1)NC(=O)[C@@H](NC(=O)[C@H](CO)NC(=O)[C@@H]1CS[C@@H](C)[C@H]2NC(=O)[C@H](C)NC(=O)[C@H](NC(=O)[C@H](C)NC(=O)CNC(=O)[C@@H]3CCCN3C(=O)[C@@H]3CS[C@@H](C)[C@@H](NC(=O)[C@H](CCCCN)NC(=O)[C@@H]4CS[C@@H](C)[C@@H](NC(=O)[C@@H]5CSC[C@@H](NC(=O)/C(=C/C)NC(=O)[C@@H](N)[C@@H](C)CC)C(=O)N[C@@H]([C@@H](C)CC)C(=O)NC(=C)C(=O)N[C@@H](CC(C)C)C(=O)N5)C(=O)N5CCC[C@H]5C(=O)NCC(=O)N4)C(=O)NCC(=O)N[C@@H](C)C(=O)N[C@@H](CC(C)C)C(=O)N[C@@H](CCSC)C(=O)NCC(=O)N3)[C@H](C)SC[C@H](NC2=O)C(=O)N[C@@H](Cc2c[nH]cn2)C(=O)N1)[C@@H](C)CC)C(C)C)C(=O)N[C@@H](CCCCN)C(=O)O [PGA]
MIC (T. scotoductus SE-1): 0.125 µM (≈ 0.401 µg/mL) | MIC (T. thermophilus HB27): 0.0156 µM (≈ 0.05 µg/mL) | MIC (T. rehai): 0.0156 µM (≈ 0.05 µg/mL) | MIC (T. brockianus): 0.0625 µM (≈ 0.2 µg/mL) | MIC (T. oshimai): 0.0078 µM (≈ 0.025 µg/mL) | MIC (T. aquaticus): 0.0312 µM (≈ 0.1 µg/mL) | % difference [1]: 113%
